Converted amounts (≈) assume the structure as drawn.
Assays:
[1] = target: Sphingosine 1-phosphate receptor 3 (Homo sapiens, UniProt Q99500); experiment: Agonist activity at human S1P3 receptor expressed in EDG3-bla U2OS cells incubated for 18 hrs prior to GenBlazer substrate addition by beta-arrestin recruitment assay; assay type: cell-based
[2] = Kinetic solubility of the compound in buffer at pH 7.4 after 16 to 19 hrs by UV absorbance assay; assay type: physicochemical; conditions: read-out: Kinetic_solubility
[3] = target: Sphingosine 1-phosphate receptor 1 (Homo sapiens, UniProt P21453); experiment: Agonist activity at human S1P1 receptor expressed in EDG1-bla U2OS cells incubated for 18 hrs prior to GenBlazer substrate addition by beta-arrestin recruitment assay; assay type: cell-based
Sphingosine 1-phosphate receptor 1, sequence (P21453 whole entry): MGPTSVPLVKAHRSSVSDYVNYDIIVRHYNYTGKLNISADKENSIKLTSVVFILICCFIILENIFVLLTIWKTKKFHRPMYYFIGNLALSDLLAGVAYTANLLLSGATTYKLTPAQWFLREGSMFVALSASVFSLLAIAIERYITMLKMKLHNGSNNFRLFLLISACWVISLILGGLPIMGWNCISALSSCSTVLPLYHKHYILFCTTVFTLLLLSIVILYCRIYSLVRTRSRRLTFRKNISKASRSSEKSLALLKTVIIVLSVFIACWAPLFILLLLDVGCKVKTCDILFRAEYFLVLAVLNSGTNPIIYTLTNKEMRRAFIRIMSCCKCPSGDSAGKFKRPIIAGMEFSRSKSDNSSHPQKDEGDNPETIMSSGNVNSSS

[4] = Ratio of drug level in brain to plasma (unknown origin); assay type: ADME, cell-free; conditions: read-out: BPR
[5] = Equilibrium solubility of the compound in citric acid monohydrate/Na2HPO4 dihydrate buffer at pH 6.8 after 24 hrs by RP-HPLC analysis; assay type: physicochemical
Homo sapiens = species: Homo sapiens; experiment: Selectivity ratio of EC50 for human S1P5 receptor to EC50 for human S1P1 receptor
[6] = target: Sphingosine 1-phosphate receptor 5 (Homo sapiens, UniProt Q9H228); experiment: Agonist activity at human S1P5 receptor expressed in EDG8-bla U2OS cells incubated for 18 hrs prior to GenBlazer substrate addition by beta-arrestin recruitment assay; assay type: cell-based
Sphingosine 1-phosphate receptor 5, sequence (Q9H228 whole entry): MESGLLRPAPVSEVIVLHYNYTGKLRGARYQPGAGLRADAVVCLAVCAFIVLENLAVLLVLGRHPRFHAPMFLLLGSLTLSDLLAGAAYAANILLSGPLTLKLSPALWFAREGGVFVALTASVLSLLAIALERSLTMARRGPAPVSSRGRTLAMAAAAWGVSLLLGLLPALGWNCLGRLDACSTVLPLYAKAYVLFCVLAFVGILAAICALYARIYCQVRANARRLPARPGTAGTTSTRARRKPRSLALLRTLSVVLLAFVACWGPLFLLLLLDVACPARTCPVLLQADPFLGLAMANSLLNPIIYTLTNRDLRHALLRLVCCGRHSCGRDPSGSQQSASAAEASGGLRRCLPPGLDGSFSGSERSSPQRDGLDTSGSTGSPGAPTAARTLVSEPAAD

Sphingosine 1-phosphate receptor 3, sequence (Q99500 whole entry): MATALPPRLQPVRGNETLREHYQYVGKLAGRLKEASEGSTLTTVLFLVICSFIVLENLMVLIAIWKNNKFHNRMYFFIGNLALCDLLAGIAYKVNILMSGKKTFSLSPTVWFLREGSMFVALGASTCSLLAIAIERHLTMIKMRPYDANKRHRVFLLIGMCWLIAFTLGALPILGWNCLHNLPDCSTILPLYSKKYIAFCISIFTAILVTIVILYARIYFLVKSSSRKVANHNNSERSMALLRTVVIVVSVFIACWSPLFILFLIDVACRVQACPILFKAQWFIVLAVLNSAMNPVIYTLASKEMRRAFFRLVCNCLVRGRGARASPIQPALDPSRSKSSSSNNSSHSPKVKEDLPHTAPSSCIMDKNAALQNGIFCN

Structure (SMILES): Cc1nc(CC(C)C)cc(-c2nc(-c3cc(F)c(O[C@@H]4CCC(=O)N(C)C4)cc3Cl)no2)n1
- EC50 [1]: > 10000 nM
- solubility kinetic [2]: 26 µg/mL (≈ 54.9 µM)
- EC50 [3]: 32 nM
- Kp [4]: 0.1
- solubility thermodynamic at 24 h [5]: 10 µg/mL (≈ 21.1 µM)
- Ratio EC50 (Homo sapiens): 7
- EC50 [6]: 215 nM

Structure (SMILES): CCOc1ncc(-c2nnc(-c3cc(F)c(OC[C@H](N)CO)cc3Cl)s2)cc1Cl
- solubility kinetic [2]: < 0.1 µg/mL
- EC50 [3]: 594 nM

Structure (SMILES): Cc1cc(-c2nc(-c3cnc(OC[C@H]4COC(=O)N4)c(C)n3)no2)cc(NC(C)C)n1
- solubility kinetic [2]: 2 µg/mL (≈ 4.7 µM)
- EC50 [3]: 2.5 nM

Structure (SMILES): Cc1cc(-c2nc(-c3cc(F)c(OC[C@H](N)CO)cc3Cl)no2)cc(OC(C)C)n1
- solubility kinetic [2]: 0.2 µg/mL (≈ 0.458 µM)
- EC50 [3]: 67 nM

Structure (SMILES): Cc1cc(-c2nnc(-c3cc(F)c(OC[C@H]4COC(=O)N4)cc3Cl)s2)cc(NC(C)C)n1
- solubility kinetic [2]: 0.3 µg/mL (≈ 0.628 µM)
- EC50 [3]: 86 nM

Structure (SMILES): Cc1cc(-c2nc(-c3cc(C)c(OC[C@H]4COC(=O)N4)cn3)no2)cc(CC(C)C)n1
- solubility kinetic [2]: 23 µg/mL (≈ 54.3 µM)
- EC50 [3]: 63 nM

Structure (SMILES): Cc1cc(-c2nc(-c3ccc(OC[C@H]4COC(=O)N4)nc3)no2)cc(NC(C)C)n1
- solubility kinetic [2]: 0.3 µg/mL (≈ 0.731 µM)
- EC50 [3]: 7.3 nM

Structure (SMILES): Cc1cc(-c2nc(-c3cc(C)c(OC[C@H]4COC(=O)N4)cn3)no2)cc(NC(C)C)n1
- solubility kinetic [2]: 0.2 µg/mL (≈ 0.471 µM)
- EC50 [3]: 18 nM

Structure (SMILES): CC(C)Oc1ncc(-c2nnc(-c3cc(F)c(OC[C@H](N)CO)cc3Cl)s2)cc1Cl
- solubility kinetic [2]: < 0.1 µg/mL
- EC50 [3]: 100 nM

Structure (SMILES): Cc1cc(-c2nc(-c3cc(F)c(OC[C@H]4OCC[C@@H]4O)cc3Cl)no2)cc(NC(C)C)n1
- solubility kinetic [2]: 0.1 µg/mL (≈ 0.216 µM)
- EC50 [3]: 6 nM

Structure (SMILES): Cc1cc(-c2nnc(-c3cc(F)c(O[C@H]4CCC(=O)NC4)cc3Cl)s2)cc(NC(C)C)n1
- solubility kinetic [2]: 0.8 µg/mL (≈ 1.68 µM)
- EC50 [3]: 160 nM

Structure (SMILES): Cc1cc(-c2nc(-c3cc(F)c(OC[C@H](N)CO)cc3Cl)no2)cc(NC(C)C)n1
- solubility kinetic [2]: 0.3 µg/mL (≈ 0.688 µM)
- EC50 [3]: 4 nM

Structure (SMILES): Cc1cc(-c2nnc(-c3cc(F)c(OC[C@H]4CNC(=O)CO4)cc3Cl)s2)cc(NC(C)C)n1
- solubility kinetic [2]: 0.8 µg/mL (≈ 1.63 µM)
- EC50 [3]: 550 nM

Structure (SMILES): Cc1cc(-c2nnc(-c3cc(F)c(O[C@@H]4CCC(=O)NC4)cc3Cl)s2)cc(NC(C)C)n1
- solubility kinetic [2]: 1 µg/mL (≈ 2.1 µM)
- EC50 [3]: 300 nM

Structure (SMILES): Cc1cc(-c2nc(-c3ccc(OC[C@H]4COC(=O)N4)cc3)no2)cc(NC(C)C)n1
- solubility kinetic [2]: 0.1 µg/mL (≈ 0.244 µM)
- EC50 [3]: 2.8 nM

Structure (SMILES): Cc1cc(-c2nc(-c3cnc(OC[C@H]4COC(=O)N4)cn3)no2)cc(CC(C)C)n1
- solubility kinetic [2]: 27 µg/mL (≈ 65.8 µM)
- EC50 [3]: 200 nM

Structure (SMILES): Cc1cc(-c2nc(-c3cc(F)c(O[C@@H]4CNC(=O)C4)cc3Cl)no2)cc(NC(C)C)n1
- solubility kinetic [2]: 0.1 µg/mL (≈ 0.224 µM)
- EC50 [3]: 3.5 nM

Structure (SMILES): Cc1cc(-c2nc(-c3cc(F)c(OC[C@H]4CCC(=O)N4)cc3Cl)no2)cc(NC(C)C)n1
- solubility kinetic [2]: 0.1 µg/mL (≈ 0.217 µM)
- EC50 [3]: 0.8 nM

Structure (SMILES): Cc1cc(-c2nc(-c3ccc(OC[C@H]4COC(=O)N4)c(C)n3)no2)cc(NC(C)C)n1
- solubility kinetic [2]: 17 µg/mL (≈ 40.1 µM)
- EC50 [3]: 7.9 nM

Structure (SMILES): Cc1nc(-c2nc(-c3cc(F)c(OC[C@H](N)CO)cc3Cl)no2)ccc1OC(C)C
- solubility kinetic [2]: 8 µg/mL (≈ 18.3 µM)
- EC50 [3]: 49 nM

Structure (SMILES): Cc1cc(-c2nc(-c3ccc(O[C@H]4CCC(=O)NC4)c(C)n3)no2)cc(NC(C)C)n1
- EC50 [1]: > 10000 nM
- solubility kinetic [2]: > 40 µg/mL
- EC50 [3]: 42 nM
- solubility thermodynamic at 24 h [5]: 12 µg/mL (≈ 28.4 µM)
- Ratio EC50 (Homo sapiens): 7
- EC50 [6]: 350 nM

Structure (SMILES): CC(C)Oc1ccc(-c2nc(-c3cc(F)c(OC[C@H](N)CO)cc3Cl)no2)cc1C#N
- solubility kinetic [2]: < 0.1 µg/mL
- EC50 [3]: 0.1 nM

Structure (SMILES): Cc1cc(-c2nc(-c3cnc(OC[C@H]4COC(=O)N4)c(C)c3)no2)cc(CC(C)C)n1
- solubility kinetic [2]: 0.9 µg/mL (≈ 2.13 µM)
- EC50 [3]: 1.4 nM

Structure (SMILES): Cc1nc(-c2nnc(-c3cc(F)c(OC[C@H](N)CO)cc3Cl)s2)ccc1OC(C)C
- solubility kinetic [2]: < 0.1 µg/mL
- EC50 [3]: 105 nM

Structure (SMILES): CC(C)Cc1ccc(-c2nc(-c3ccc([C@@H](C)N[C@H]4C[C@@H](C(=O)O)C4)cc3)no2)cc1
- EC50 [1]: > 10000 nM
- EC50 [3]: 1.9 nM

Structure (SMILES): CC(C)Oc1ncc(-c2nc(-c3cc(F)c(OC[C@H](N)CO)cc3Cl)no2)cc1Cl
- solubility kinetic [2]: < 0.1 µg/mL
- EC50 [3]: 13 nM

Structure (SMILES): CC(=O)N1CCOC[C@@H]1COc1cc(Cl)c(-c2noc(-c3cc(C)nc(NC(C)C)c3)n2)cc1F
- solubility kinetic [2]: 0.1 µg/mL (≈ 0.198 µM)
- EC50 [3]: 4.1 nM

Structure (SMILES): Cc1cc(-c2nc(-c3cnc(OC[C@H]4COC(=O)N4)cn3)no2)cc(NC(C)C)n1
- solubility kinetic [2]: 25 µg/mL (≈ 60.8 µM)
- EC50 [3]: 150 nM

Structure (SMILES): Cc1cc(-c2nc(-c3ccc(OC[C@H]4COC(=O)N4)c(F)c3)no2)cc(NC(C)C)n1
- solubility kinetic [2]: 0.1 µg/mL (≈ 0.234 µM)
- EC50 [3]: 0.5 nM

Structure (SMILES): Cc1cc(-c2nc(-c3cc(F)c(O[C@@H]4CCC(=O)NC4)cc3Cl)no2)cc(NC(C)C)n1
- solubility kinetic [2]: 0.1 µg/mL (≈ 0.217 µM)
- EC50 [3]: 0.8 nM

Structure (SMILES): CC(=O)N1CCOC[C@@H]1COc1cc(Cl)c(-c2nnc(-c3cc(C)nc(NC(C)C)c3)s2)cc1F
- solubility kinetic [2]: 1 µg/mL (≈ 1.92 µM)
- EC50 [3]: 310 nM

Structure (SMILES): CCOc1ncc(-c2nc(-c3cc(F)c(OC[C@H](N)CO)cc3Cl)no2)cc1Cl
- solubility kinetic [2]: < 0.1 µg/mL
- EC50 [3]: 62 nM

Structure (SMILES): CC(C)Oc1ncc(-c2nc(-c3cc(F)c(OC[C@H](N)CO)cc3Cl)no2)cc1C#N
- solubility kinetic [2]: < 0.1 µg/mL
- EC50 [3]: 0.5 nM

Structure (SMILES): Cc1cc(-c2nnc(-c3cc(F)c(O[C@H]4COC[C@H]4O)cc3Cl)s2)cc(NC(C)C)n1 (racemic)
- solubility kinetic [2]: 0.2 µg/mL (≈ 0.43 µM)
- EC50 [3]: 147 nM

Structure (SMILES): Cc1cc(-c2nnc(-c3cc(F)c(O[C@@H]4CNC(=O)C4)cc3Cl)s2)cc(NC(C)C)n1
- solubility kinetic [2]: 0.6 µg/mL (≈ 1.3 µM)
- EC50 [3]: 560 nM

Structure (SMILES): Cc1cc(-c2nnc(-c3cc(F)c(OC[C@H]4OCC[C@@H]4O)cc3Cl)s2)cc(NC(C)C)n1
- solubility kinetic [2]: 0.9 µg/mL (≈ 1.88 µM)
- EC50 [3]: 250 nM

Structure (SMILES): Cc1cc(-c2nc(-c3ccc(OC[C@H]4COC(=O)N4)c(C)n3)no2)cc(CC(C)C)n1
- solubility kinetic [2]: > 40 µg/mL
- EC50 [3]: 37 nM

Structure (SMILES): CCCCCCCCCCCCC/C=C/[C@@H](O)[C@@H](N)COP(=O)(O)O
- EC50 [1]: 79 nM
- EC50 [3]: 2.8 nM

Structure (SMILES): Cc1cc(-c2nc(-c3cc(F)c(OC[C@H](N)CO)cc3Cl)no2)cc(CC(C)C)n1
- EC50 [3]: 20 nM

Structure (SMILES): CCCCCCCCc1ccc(CCC(N)(CO)CO)cc1 [FINGOLIMOD]
- EC50 [1]: > 10000 nM

Structure (SMILES): Cc1cc(-c2nc(-c3ccc(OC[C@H]4COC(=O)N4)cn3)no2)cc(NC(C)C)n1
- solubility kinetic [2]: 0.9 µg/mL (≈ 2.19 µM)
- EC50 [3]: 120 nM

Structure (SMILES): Cc1cc(-c2nc(-c3cc(F)c(O[C@H]4COC[C@H]4O)cc3Cl)no2)cc(NC(C)C)n1 (racemic)
- solubility kinetic [2]: 0.1 µg/mL (≈ 0.223 µM)
- EC50 [3]: 0.8 nM

Structure (SMILES): Cc1cc(-c2nnc(-c3cc(F)c(OC[C@H]4CCC(=O)N4)cc3Cl)s2)cc(NC(C)C)n1
- solubility kinetic [2]: 0.9 µg/mL (≈ 1.89 µM)
- EC50 [3]: 330 nM

Structure (SMILES): Cc1cc(-c2nnc(-c3cc(F)c(OC[C@H](N)CO)cc3Cl)s2)cc(NC(C)C)n1
- solubility kinetic [2]: 9 µg/mL (≈ 19.9 µM)
- EC50 [3]: 18 nM

Structure (SMILES): CC(C)Oc1ccc(-c2nnc(-c3cc(F)c(OC[C@H](N)CO)cc3Cl)s2)cc1Cl
- EC50 [1]: > 10000 nM
- solubility kinetic [2]: < 0.1 µg/mL
- EC50 [3]: 32 nM

Structure (SMILES): Cc1cc(-c2nc(-c3cc(F)c(O[C@H]4CCC(=O)NC4)cc3Cl)no2)cc(NC(C)C)n1
- solubility kinetic [2]: 0.1 µg/mL (≈ 0.217 µM)
- EC50 [3]: 0.2 nM

Structure (SMILES): CC(C)Oc1ncc(-c2nnc(-c3cc(F)c(OC[C@H](N)CO)cc3Cl)s2)cc1C#N
- solubility kinetic [2]: < 0.1 µg/mL
- EC50 [3]: 13 nM

Structure (SMILES): Cc1cc(-c2nc(-c3cc(C)c(OC[C@@H]4CCC(=O)N4)c(C)n3)no2)cc(CC(C)C)n1
- EC50 [1]: > 10000 nM
- solubility kinetic [2]: > 40 µg/mL
- EC50 [3]: 11 nM
- solubility thermodynamic at 24 h [5]: 21 µg/mL (≈ 48.2 µM)
- Ratio EC50 (Homo sapiens): 7
- EC50 [6]: 340 nM

Structure (SMILES): CC(C)Oc1ccc(-c2nc(-c3cc(F)c(OC[C@H](N)CO)cc3Cl)no2)cc1Cl
- EC50 [1]: > 10000 nM
- solubility kinetic [2]: < 0.1 µg/mL
- EC50 [3]: 4.1 nM

Structure (SMILES): Cc1cc(-c2nnc(-c3cc(F)c(OC[C@H](N)CO)cc3Cl)s2)cc(OC(C)C)n1
- solubility kinetic [2]: < 0.1 µg/mL
- EC50 [3]: 130 nM

Structure (SMILES): Cc1cc(-c2nc(-c3cc(F)c(OC[C@H]4CNC(=O)CO4)cc3Cl)no2)cc(NC(C)C)n1
- solubility kinetic [2]: 0.1 µg/mL (≈ 0.21 µM)
- EC50 [3]: 14 nM

Structure (SMILES): Cc1cc(-c2nnc(-c3cc(F)c(OC[C@H](N)CO)cc3Cl)s2)cc(CC(C)C)n1
- solubility kinetic [2]: 25 µg/mL (≈ 55.4 µM)
- EC50 [3]: 0.8 nM
